For orientation: IC50 means the concentration that inhibits the measured activity by half. What is called melting point is the temperature, or range, at which the solid turns liquid.

Chain of EGFR^L858R (P00533 25-1210 L858R): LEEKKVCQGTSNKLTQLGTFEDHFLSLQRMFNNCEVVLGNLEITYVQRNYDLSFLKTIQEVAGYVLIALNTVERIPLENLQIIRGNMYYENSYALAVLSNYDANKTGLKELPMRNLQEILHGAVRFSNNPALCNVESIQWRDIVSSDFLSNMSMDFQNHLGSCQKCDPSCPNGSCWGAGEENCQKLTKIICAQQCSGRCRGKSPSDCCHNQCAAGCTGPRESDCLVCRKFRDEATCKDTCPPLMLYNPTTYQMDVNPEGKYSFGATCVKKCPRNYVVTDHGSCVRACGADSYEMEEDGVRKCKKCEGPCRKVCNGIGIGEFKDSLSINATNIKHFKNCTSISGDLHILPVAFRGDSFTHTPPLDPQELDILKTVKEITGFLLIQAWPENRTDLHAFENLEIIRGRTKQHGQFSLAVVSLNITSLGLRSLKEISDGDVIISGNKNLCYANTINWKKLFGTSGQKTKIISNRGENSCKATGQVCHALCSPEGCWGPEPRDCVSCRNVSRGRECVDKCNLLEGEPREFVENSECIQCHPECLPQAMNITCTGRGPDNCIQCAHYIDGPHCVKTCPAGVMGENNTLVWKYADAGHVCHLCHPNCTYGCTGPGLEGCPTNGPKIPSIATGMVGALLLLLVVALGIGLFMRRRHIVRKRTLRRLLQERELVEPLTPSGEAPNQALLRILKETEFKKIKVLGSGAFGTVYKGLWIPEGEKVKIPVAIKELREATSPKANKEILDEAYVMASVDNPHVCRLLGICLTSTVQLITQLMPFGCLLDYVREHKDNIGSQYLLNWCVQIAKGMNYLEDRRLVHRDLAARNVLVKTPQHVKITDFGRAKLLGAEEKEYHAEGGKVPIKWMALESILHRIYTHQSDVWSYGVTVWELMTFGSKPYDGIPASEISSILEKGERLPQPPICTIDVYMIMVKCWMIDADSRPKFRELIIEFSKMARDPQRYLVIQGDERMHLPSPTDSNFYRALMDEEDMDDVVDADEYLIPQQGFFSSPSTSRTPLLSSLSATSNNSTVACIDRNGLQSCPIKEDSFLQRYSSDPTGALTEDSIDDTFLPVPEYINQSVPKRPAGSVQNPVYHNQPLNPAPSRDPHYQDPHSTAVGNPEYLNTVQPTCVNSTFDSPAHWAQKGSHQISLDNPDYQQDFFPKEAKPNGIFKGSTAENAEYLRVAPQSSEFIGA

The first data set relates to H1975 cells. As to the kind of experiment: MTT antiproliferative assay, H1975. The conditions noted are these: Homo sapiens, NCI-H1975, read-out: IC50 (µM) H1975.
Take `CC1(c2ccccc2)NC(=O)N(CC(=O)Nc2ccc(S(N)(=O)=O)cc2)C1=O` (stereo not shown) [5b, N-(4-aminosulphonylphenyl)-2-(4-methyl-2,5-dioxo-4-phenylimidazolidin-1-yl)acetamide]: the half-maximal inhibitory concentration (IC50) was found to be 8.2 ± 0.45 µM.
Regarding `COc1ccc(NC(=O)CN2C(=O)NC(C)(c3ccccc3)C2=O)cc1Cl` (stereo not shown) [5c, N-(3-chloro-4-methoxyphenyl)-2-(4-methyl-2,5-dioxo-4-phenylimidazolidin-1-yl)acetamide], the half-maximal inhibitory concentration (IC50) was 55.3 ± 3.01 µM.
Consider `COc1ccc(C)cc1NC(=O)CN1C(=O)NC(C)(c2ccccc2)C1=O` (stereo not shown) [5d, N-(2-methoxy-5-methylphenyl)-2-(4-methyl-2,5-dioxo-4-phenylimidazolidin-1-yl)acetamide], for which the 50% inhibitory concentration (IC50) turned out to be 11.9 ± 0.65 µM.
Same read-out and setting: the value for `CC1(c2ccccc2)NC(=O)N(CC(=O)Nc2ccc(F)cc2)C1=O` (stereo not shown) [5e, N-(4-fluorophenyl)-2-(4-methyl-2,5-dioxo-4-phenylimidazolidin-1-yl)acetamide] was 9.34 ± 0.51 µM; that for `CC1(c2ccccc2)NC(=O)N(CC(=O)Nc2ccccc2F)C1=O` (stereo not shown) [5f, N-(2-fluorophenyl)-2-(4-methyl-2,5-dioxo-4-phenylimidazolidin-1-yl)acetamide] was 1.38 ± 0.07 µM.
Regarding `CC1(c2ccccc2)NC(=O)N(CC(=O)Nc2cccc(F)c2)C1=O` (stereo not shown) [5g, N-(3-fluorophenyl)-2-(4-methyl-2,5-dioxo-4-phenylimidazolidin-1-yl)acetamide], the half-maximal inhibitory concentration (IC50) is 6.84 ± 0.37 µM.
Regarding `CC1(c2ccccc2)NC(=O)N(CC(=O)Nc2ccc(F)c(F)c2)C1=O` (stereo not shown) [5h, N-(3,4-difluorophenyl)-2-(4-methyl-2,5-dioxo-4-phenylimidazolidin-1-yl)acetamide], the half-maximal inhibitory concentration (IC50) turned out to be 21.3 ± 1.16 µM.

For a further data set, the target named is EGFR^WT (Homo sapiens, UniProt P00533). As to the kind of experiment: EGFR kinase assay (wild type).
Chain of EGFR^WT (P00533 25-1210): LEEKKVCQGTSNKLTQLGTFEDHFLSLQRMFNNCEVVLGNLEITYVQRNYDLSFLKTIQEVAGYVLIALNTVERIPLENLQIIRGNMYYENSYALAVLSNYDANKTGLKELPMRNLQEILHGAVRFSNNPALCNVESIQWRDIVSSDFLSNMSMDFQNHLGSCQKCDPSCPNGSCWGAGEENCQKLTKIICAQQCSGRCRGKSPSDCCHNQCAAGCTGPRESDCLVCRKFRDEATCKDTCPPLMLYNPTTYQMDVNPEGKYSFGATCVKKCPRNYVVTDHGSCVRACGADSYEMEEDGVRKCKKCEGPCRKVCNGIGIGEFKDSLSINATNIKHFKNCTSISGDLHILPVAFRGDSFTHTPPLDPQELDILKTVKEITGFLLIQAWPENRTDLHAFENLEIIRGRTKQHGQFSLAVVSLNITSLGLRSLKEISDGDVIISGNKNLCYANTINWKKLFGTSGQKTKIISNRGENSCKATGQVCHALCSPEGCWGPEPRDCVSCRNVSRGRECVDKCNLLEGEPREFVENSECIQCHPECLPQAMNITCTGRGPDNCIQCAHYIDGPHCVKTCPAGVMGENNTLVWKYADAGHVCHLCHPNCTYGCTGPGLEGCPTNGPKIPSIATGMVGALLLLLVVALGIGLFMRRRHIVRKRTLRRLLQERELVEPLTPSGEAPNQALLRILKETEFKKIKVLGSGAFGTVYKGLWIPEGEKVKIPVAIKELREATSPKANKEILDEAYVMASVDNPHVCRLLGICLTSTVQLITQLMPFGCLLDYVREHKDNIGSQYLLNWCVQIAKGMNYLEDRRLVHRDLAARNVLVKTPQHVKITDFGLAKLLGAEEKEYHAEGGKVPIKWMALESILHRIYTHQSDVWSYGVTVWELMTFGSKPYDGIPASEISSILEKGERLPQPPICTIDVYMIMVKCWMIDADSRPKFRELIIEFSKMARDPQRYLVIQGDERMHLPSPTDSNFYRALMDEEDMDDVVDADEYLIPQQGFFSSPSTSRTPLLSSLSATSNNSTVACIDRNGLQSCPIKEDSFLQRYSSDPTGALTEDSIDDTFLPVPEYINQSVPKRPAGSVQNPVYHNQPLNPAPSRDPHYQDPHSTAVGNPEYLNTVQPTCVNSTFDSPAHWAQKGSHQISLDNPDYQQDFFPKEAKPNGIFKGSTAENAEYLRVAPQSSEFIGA
Settings: not given
On to `CC1(c2ccccc2)NC(=O)N(CC(=O)Nc2ccccc2F)C1=O` (stereo not shown) [5f, N-(2-fluorophenyl)-2-(4-methyl-2,5-dioxo-4-phenylimidazolidin-1-yl)acetamide], for which the IC50 was determined as 0.06 ± 0.011 µM.

For the next data set, the system named is PC9 cells. As to the kind of experiment: MTT antiproliferative assay, PC9. The following applies: Homo sapiens, PC-9, read-out: IC50 (µM) PC9. (In general: Formazan colour is commonly taken as a measure of viable cells.)
As for `CC1(c2ccccc2)NC(=O)N(CC(=O)Nc2ccc(S(N)(=O)=O)cc2)C1=O` (stereo not shown) [5b, N-(4-aminosulphonylphenyl)-2-(4-methyl-2,5-dioxo-4-phenylimidazolidin-1-yl)acetamide], the IC50 came to 5.12 ± 0.56 µM.
On the same count and under the same terms, the value for `COc1ccc(NC(=O)CN2C(=O)NC(C)(c3ccccc3)C2=O)cc1Cl` (stereo not shown) [5c, N-(3-chloro-4-methoxyphenyl)-2-(4-methyl-2,5-dioxo-4-phenylimidazolidin-1-yl)acetamide] was 21.3 ± 2.31 µM.
On the same count and under the same terms, the value for `COc1ccc(C)cc1NC(=O)CN1C(=O)NC(C)(c2ccccc2)C1=O` (stereo not shown) [5d, N-(2-methoxy-5-methylphenyl)-2-(4-methyl-2,5-dioxo-4-phenylimidazolidin-1-yl)acetamide] was 7.5 ± 0.81 µM; that for `CC1(c2ccccc2)NC(=O)N(CC(=O)Nc2ccc(F)cc2)C1=O` (stereo not shown) [5e, N-(4-fluorophenyl)-2-(4-methyl-2,5-dioxo-4-phenylimidazolidin-1-yl)acetamide] was 2.52 ± 0.27 µM; that for `CC1(c2ccccc2)NC(=O)N(CC(=O)Nc2ccccc2F)C1=O` (stereo not shown) [5f, N-(2-fluorophenyl)-2-(4-methyl-2,5-dioxo-4-phenylimidazolidin-1-yl)acetamide] was 4.4 ± 0.48 µM.
The same measure, in the same setting: the value for `CC1(c2ccccc2)NC(=O)N(CC(=O)Nc2cccc(F)c2)C1=O` (stereo not shown) [5g, N-(3-fluorophenyl)-2-(4-methyl-2,5-dioxo-4-phenylimidazolidin-1-yl)acetamide] was 11.5 ± 1.25 µM; that for `CC1(c2ccccc2)NC(=O)N(CC(=O)Nc2ccc(F)c(F)c2)C1=O` (stereo not shown) [5h, N-(3,4-difluorophenyl)-2-(4-methyl-2,5-dioxo-4-phenylimidazolidin-1-yl)acetamide] was 15.4 ± 1.67 µM.

Another data set deals with WI-38 normal cells. As to the kind of experiment: MTT cytotoxicity on normal fibroblast WI-38 cells. The following applies: Homo sapiens, WI-38, read-out: WI-38, IC50 (µM).
Experimental: The new prepared candidates 5a–5n were evaluated for their antitumor activities against four selected cell lines, the adenocarcinomic human alveolar basal epithelial cells NCI-A549, NCI-H1975, human pulmonary adenocarcinoma PC9, and the fibroblast-like fetal lung cells WI-38 (purchased from American Type Culture Collection (ATCC), United States of America), using an MTT assay [26], as described earlier [27].
For `CC1(c2ccccc2)NC(=O)N(CC(=O)Nc2ccccc2F)C1=O` (stereo not shown) [5f, N-(2-fluorophenyl)-2-(4-methyl-2,5-dioxo-4-phenylimidazolidin-1-yl)acetamide], the half-inhibitory concentration (IC50) came out at 42.5 ± 2.32 µM.

Staying with this data set, now noted: ratio of WI-38 IC50 versus erlotinib.
For the compound `CC1(c2ccccc2)NC(=O)N(CC(=O)Nc2ccccc2F)C1=O` (stereo not shown) [5f, N-(2-fluorophenyl)-2-(4-methyl-2,5-dioxo-4-phenylimidazolidin-1-yl)acetamide], the “fold superior to the reference erlotinib on WI-38” value is 2.3 fold.

The next data set deals with EGFR^T790M (Homo sapiens, UniProt P00533, T790M). Description: EGFR kinase assay (T790M).
Chain of EGFR^T790M (P00533 25-1210 T790M): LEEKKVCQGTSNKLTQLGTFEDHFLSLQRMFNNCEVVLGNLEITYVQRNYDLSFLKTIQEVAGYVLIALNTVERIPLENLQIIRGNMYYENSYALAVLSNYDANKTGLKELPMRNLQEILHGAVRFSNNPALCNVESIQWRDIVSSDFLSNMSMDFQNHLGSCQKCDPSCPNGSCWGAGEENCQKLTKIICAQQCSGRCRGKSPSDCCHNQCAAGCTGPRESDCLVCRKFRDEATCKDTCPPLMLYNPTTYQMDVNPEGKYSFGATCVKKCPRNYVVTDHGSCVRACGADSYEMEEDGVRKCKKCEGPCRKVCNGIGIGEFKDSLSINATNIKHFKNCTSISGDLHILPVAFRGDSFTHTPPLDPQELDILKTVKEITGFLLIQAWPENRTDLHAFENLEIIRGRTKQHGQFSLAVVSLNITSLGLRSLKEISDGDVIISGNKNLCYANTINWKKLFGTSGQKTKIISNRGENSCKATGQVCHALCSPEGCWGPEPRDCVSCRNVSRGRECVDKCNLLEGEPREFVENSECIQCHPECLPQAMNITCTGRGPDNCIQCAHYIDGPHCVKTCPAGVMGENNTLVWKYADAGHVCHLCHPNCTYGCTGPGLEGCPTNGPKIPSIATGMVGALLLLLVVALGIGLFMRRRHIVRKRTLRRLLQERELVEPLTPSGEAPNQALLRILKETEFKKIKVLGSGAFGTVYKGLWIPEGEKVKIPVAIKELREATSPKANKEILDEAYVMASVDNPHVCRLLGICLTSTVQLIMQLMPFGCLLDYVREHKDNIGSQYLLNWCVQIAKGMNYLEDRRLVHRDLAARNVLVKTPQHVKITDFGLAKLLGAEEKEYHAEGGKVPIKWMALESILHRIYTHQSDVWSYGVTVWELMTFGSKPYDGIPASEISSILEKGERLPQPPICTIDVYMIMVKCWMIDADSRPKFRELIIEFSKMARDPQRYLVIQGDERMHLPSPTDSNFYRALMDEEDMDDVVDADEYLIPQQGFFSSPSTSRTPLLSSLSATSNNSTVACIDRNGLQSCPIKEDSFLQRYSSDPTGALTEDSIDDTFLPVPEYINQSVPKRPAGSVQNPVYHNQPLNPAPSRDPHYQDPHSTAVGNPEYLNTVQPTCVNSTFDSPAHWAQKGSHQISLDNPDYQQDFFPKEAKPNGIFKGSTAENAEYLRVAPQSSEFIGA
Settings: not given
Turning to `CC1(c2ccccc2)NC(=O)N(CC(=O)Nc2ccccc2F)C1=O` (stereo not shown) [5f, N-(2-fluorophenyl)-2-(4-methyl-2,5-dioxo-4-phenylimidazolidin-1-yl)acetamide], it took 0.26 ± 0.005 µM to reach half-maximal inhibition (IC50).

The subject of a further data set is A549, H1975, and PC9 cell lines. As to the kind of experiment: MTT antiproliferative assay, average of the three NSCLC cell lines. The conditions noted are these: Homo sapiens, read-out: IC50 (µM) Average.
With `CC1(c2ccccc2)NC(=O)N(CC(=O)Nc2ccc(S(N)(=O)=O)cc2)C1=O` (stereo not shown) [5b, N-(4-aminosulphonylphenyl)-2-(4-methyl-2,5-dioxo-4-phenylimidazolidin-1-yl)acetamide], the IC50 was determined as 9.29 µM.
Same read-out and setting: the value for `COc1ccc(NC(=O)CN2C(=O)NC(C)(c3ccccc3)C2=O)cc1Cl` (stereo not shown) [5c, N-(3-chloro-4-methoxyphenyl)-2-(4-methyl-2,5-dioxo-4-phenylimidazolidin-1-yl)acetamide] was 56 µM; that for `COc1ccc(C)cc1NC(=O)CN1C(=O)NC(C)(c2ccccc2)C1=O` (stereo not shown) [5d, N-(2-methoxy-5-methylphenyl)-2-(4-methyl-2,5-dioxo-4-phenylimidazolidin-1-yl)acetamide] was 18.4 µM.
`CC1(c2ccccc2)NC(=O)N(CC(=O)Nc2ccc(F)cc2)C1=O` (stereo not shown) [5e, N-(4-fluorophenyl)-2-(4-methyl-2,5-dioxo-4-phenylimidazolidin-1-yl)acetamide]: the half-inhibitory concentration (IC50) stood at 6.35 µM.
Regarding `CC1(c2ccccc2)NC(=O)N(CC(=O)Nc2ccccc2F)C1=O` (stereo not shown) [5f, N-(2-fluorophenyl)-2-(4-methyl-2,5-dioxo-4-phenylimidazolidin-1-yl)acetamide], the 50% inhibitory concentration (IC50) came to 2.57 µM.
The same measure, in the same setting: the value for `CC1(c2ccccc2)NC(=O)N(CC(=O)Nc2cccc(F)c2)C1=O` (stereo not shown) [5g, N-(3-fluorophenyl)-2-(4-methyl-2,5-dioxo-4-phenylimidazolidin-1-yl)acetamide] was 18.7 µM; that for `CC1(c2ccccc2)NC(=O)N(CC(=O)Nc2ccc(F)c(F)c2)C1=O` (stereo not shown) [5h, N-(3,4-difluorophenyl)-2-(4-methyl-2,5-dioxo-4-phenylimidazolidin-1-yl)acetamide] was 16.2 µM.

The next data set has as its target EGFR^L858R (Homo sapiens, UniProt P00533, L858R). As to the kind of experiment: EGFR kinase assay (L858R).
Settings: not given
Turning to `CC1(c2ccccc2)NC(=O)N(CC(=O)Nc2ccccc2F)C1=O` (stereo not shown) [5f, N-(2-fluorophenyl)-2-(4-methyl-2,5-dioxo-4-phenylimidazolidin-1-yl)acetamide], the midpoint of inhibition, the IC50, lay at 0.17 ± 0.003 µM.

A further data set has as its system A549 cells. As to the kind of experiment: MTT antiproliferative assay, A549. The conditions noted are these: Homo sapiens, A549, read-out: IC50 (µM) A549.
`CC1(c2ccccc2)NC(=O)N(CC(=O)Nc2ccc(S(N)(=O)=O)cc2)C1=O` (stereo not shown) [5b, N-(4-aminosulphonylphenyl)-2-(4-methyl-2,5-dioxo-4-phenylimidazolidin-1-yl)acetamide]: the IC50 is 14.5 ± 0.92 µM.
The same measure, in the same setting: the value for `COc1ccc(NC(=O)CN2C(=O)NC(C)(c3ccccc3)C2=O)cc1Cl` (stereo not shown) [5c, N-(3-chloro-4-methoxyphenyl)-2-(4-methyl-2,5-dioxo-4-phenylimidazolidin-1-yl)acetamide] was 91.4 ± 5.75 µM.
The same measure, in the same setting: the value for `COc1ccc(C)cc1NC(=O)CN1C(=O)NC(C)(c2ccccc2)C1=O` (stereo not shown) [5d, N-(2-methoxy-5-methylphenyl)-2-(4-methyl-2,5-dioxo-4-phenylimidazolidin-1-yl)acetamide] was 35.8 ± 2.26 µM; that for `CC1(c2ccccc2)NC(=O)N(CC(=O)Nc2ccc(F)cc2)C1=O` (stereo not shown) [5e, N-(4-fluorophenyl)-2-(4-methyl-2,5-dioxo-4-phenylimidazolidin-1-yl)acetamide] was 7.19 ± 0.45 µM; that for `CC1(c2ccccc2)NC(=O)N(CC(=O)Nc2ccccc2F)C1=O` (stereo not shown) [5f, N-(2-fluorophenyl)-2-(4-methyl-2,5-dioxo-4-phenylimidazolidin-1-yl)acetamide] was 1.94 ± 0.12 µM.
Still for that read-out and setting: the value for `CC1(c2ccccc2)NC(=O)N(CC(=O)Nc2cccc(F)c2)C1=O` (stereo not shown) [5g, N-(3-fluorophenyl)-2-(4-methyl-2,5-dioxo-4-phenylimidazolidin-1-yl)acetamide] was 37.6 ± 2.37 µM; that for `CC1(c2ccccc2)NC(=O)N(CC(=O)Nc2ccc(F)c(F)c2)C1=O` (stereo not shown) [5h, N-(3,4-difluorophenyl)-2-(4-methyl-2,5-dioxo-4-phenylimidazolidin-1-yl)acetamide] was 11.9 ± 0.75 µM.

System in another data set: not given
Assay: not given
Settings: not given
The compound `CC1(c2ccccc2)NC(=O)N(CC(=O)Nc2ccc(S(N)(=O)=O)cc2)C1=O` (stereo not shown) [5b, N-(4-aminosulphonylphenyl)-2-(4-methyl-2,5-dioxo-4-phenylimidazolidin-1-yl)acetamide] showed a melting point of 122 to 125 °C.
On the same count and under the same terms, the value for `COc1ccc(NC(=O)CN2C(=O)NC(C)(c3ccccc3)C2=O)cc1Cl` (stereo not shown) [5c, N-(3-chloro-4-methoxyphenyl)-2-(4-methyl-2,5-dioxo-4-phenylimidazolidin-1-yl)acetamide] was 163 to 166 °C; that for `COc1ccc(C)cc1NC(=O)CN1C(=O)NC(C)(c2ccccc2)C1=O` (stereo not shown) [5d, N-(2-methoxy-5-methylphenyl)-2-(4-methyl-2,5-dioxo-4-phenylimidazolidin-1-yl)acetamide] was 170 to 173 °C; that for `CC1(c2ccccc2)NC(=O)N(CC(=O)Nc2ccc(F)cc2)C1=O` (stereo not shown) [5e, N-(4-fluorophenyl)-2-(4-methyl-2,5-dioxo-4-phenylimidazolidin-1-yl)acetamide] was 226 to 228 °C.
Same read-out and setting: the value for `CC1(c2ccccc2)NC(=O)N(CC(=O)Nc2ccccc2F)C1=O` (stereo not shown) [5f, N-(2-fluorophenyl)-2-(4-methyl-2,5-dioxo-4-phenylimidazolidin-1-yl)acetamide] was 153 to 155 °C; that for `CC1(c2ccccc2)NC(=O)N(CC(=O)Nc2cccc(F)c2)C1=O` (stereo not shown) [5g, N-(3-fluorophenyl)-2-(4-methyl-2,5-dioxo-4-phenylimidazolidin-1-yl)acetamide] was 182 to 185 °C.
Still for that read-out and setting: the value for `CC1(c2ccccc2)NC(=O)N(CC(=O)Nc2ccc(F)c(F)c2)C1=O` (stereo not shown) [5h, N-(3,4-difluorophenyl)-2-(4-methyl-2,5-dioxo-4-phenylimidazolidin-1-yl)acetamide] was 195 to 198 °C.

Values taken from paper PMC9317481, “Design and Synthesis of New Hydantoin Acetanilide Derivatives as Anti-NSCLC Targeting EGFR^L858R/T790M Mutations” (Pharmaceuticals, 2022).
